Laboratory results published in patent US8642585B2, “Indanyloxydihydrobenzofuranylacetic acids” (Boehringer Ingelheim International GmbH, priority 2012, dated 2014).

Target: human GPR40 receptor (Homo sapiens, UniProt O14842)
Test: Assay II: IP1 accumulation (IPOne HTRF) in 1321N1 cells stably expressing human GPR40
Format: cell-based
Details: 1321N1 cells expressing human GPR40, stimulation 1 h at 37° C., 5% CO2, LiCl 50 mM
Protocol: IP1 accumulation measurements using the IPOne assay system—1321N1 cells stably expressing human GPR40 receptor (Euroscreen, Belgium) are seeded 24 h before the assay in white 384-well plates in culture medium containing 10% FCS, 1% Na-Pyruvate and 400 μg/mL G418. IP1 is assayed according to the manufacturers description (Cisbio Bioassays, France). In brief, the assay is started by substitution of the culture medium by stimulation buffer (Hepes 10 mM, CaCl2 1 mM, MgCl2 0.5 mM, KCl 4.2 mM, NaCl 146 mM, glucose 5.5 mM and LiCl 50 mM, pH 7.4). Cells are stimulated for 1 h at 37° C., 5% CO2 by addition of the compounds that are diluted in stimulation buffer containing LiCl. Assays are stopped by adding HTRF-conjugates (IP1-d2 and Anti-IP1 cryptate Tb) and lysis buffer, provided by the manufacturer. After an incubation time of 1 h at room temperature plates are measured using an EnVision™, Perkin Elmer. The obtained fluorescence ratios at 665/615 nM are then used to calculate the pEC50 values using Assay Explorer 3.3 Software (Accelrys, Inc.) by interpolation using an IP1 reference curve and subsequent sigmoidal curve fitting allowing for a variable hill slope.

Chain of human GPR40 receptor (O14842 whole entry): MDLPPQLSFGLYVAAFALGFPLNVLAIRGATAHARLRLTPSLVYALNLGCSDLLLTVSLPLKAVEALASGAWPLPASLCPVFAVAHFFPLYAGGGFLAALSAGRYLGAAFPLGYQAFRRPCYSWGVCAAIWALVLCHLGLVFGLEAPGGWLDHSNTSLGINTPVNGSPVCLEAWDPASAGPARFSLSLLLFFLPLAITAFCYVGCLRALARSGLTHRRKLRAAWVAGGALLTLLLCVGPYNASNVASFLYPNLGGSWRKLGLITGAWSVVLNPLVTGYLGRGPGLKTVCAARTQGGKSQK

Compound	EC50
CC(=O)NCCOc1cc(C)c(-c2ccc(F)c3c2CC[C@H]3Oc2ccc3c(c2)OC[C@H]3CC(=O)O)c(C)c1 [Example 73, 2-((S)-6-((R)-4-(4-(2-Acetamidoethoxy)-2,6-dimethylphenyl)-7-fluoro-2,3-dihydro-1H-inden-1-yloxy)-2,3-dihydrobenzofuran-3-yl)acetic acid]	13 nM
Cc1cc(CCNS(C)(=O)=O)cc(C)c1-c1ccc(F)c2c1CC[C@H]2Oc1ccc2c(c1)OC[C@H]2CC(=O)O [Example 74, 2-((S)-6-((R)-4-(2,6-dimethyl-4-(2-(methylsulfonamido)ethyl)phenyl)-7-fluoro-2,3-dihydro-1H-inden-1-yloxy)-2,3-dihydrobenzofuran-3-yl)acetic acid]	40 nM
Cc1cc(OCC2(O)CC2)cc(C)c1-c1ccc(F)c2c1CC[C@H]2Oc1ccc2c(c1)OC[C@H]2CC(=O)O [Example 75, 2-((S)-6-((R)-7-Fluoro-4-(4-((1-hydroxycyclopropyl)methoxy)-2,6-dimethylphenyl)-2,3-dihydro-1H-inden-1-yloxy)-2,3-dihydrobenzofuran-3-yl)acetic acid]	17 nM
Cc1cc(OC2CCN(C)C2=O)cc(C)c1-c1ccc(F)c2c1CC[C@H]2Oc1ccc2c(c1)OC[C@H]2CC(=O)O (stereo partly drawn) [Example 76, 2-((3S)-6-((1R)-4-(2,6-Dimethyl-4-(1-methyl-2-oxopyrrolidin-3-yloxy)phenyl)-7-fluoro-2,3-dihydro-1H-inden-1-yloxy)-2,3-dihydrobenzofuran-3-yl)acetic acid]	27 nM
Cc1cc(OCC(C)(C)CS(C)(=O)=O)cc(C)c1-c1ccc(F)c2c1CC[C@H]2Oc1ccc2c(c1)OC[C@H]2CC(=O)O [Example 77, 2-((S)-6-((R)-4-(4-(2,2-Dimethyl-3-(methylsulfonyl)propoxy)-2,6-dimethylphenyl)-7-fluoro-2,3-dihydro-1H-inden-1-yloxy)-2,3-dihydrobenzofuran-3-yl)acetic acid]	10 nM
Cc1cc(C2CCOCC2)cc(C)c1-c1ccc(F)c2c1CC[C@H]2Oc1ccc2c(c1)OC[C@H]2CC(=O)O [Example 80, 2-((S)-6-((R)-4-(2,6-Dimethyl-4-(tetrahydro-2H-pyran-4-yl)phenyl)-7-fluoro-2,3-dihydro-1H-inden-1-yloxy)-2,3-dihydrobenzofuran-3-yl)acetic acid]	11 nM
Cc1cc(C2=CC(=O)OCC2)cc(C)c1-c1ccc(F)c2c1CC[C@H]2Oc1ccc2c(c1)OC[C@H]2CC(=O)O [Example 81, 2-((S)-6-((R)-4-(2,6-Dimethyl-4-(6-oxo-3,6-dihydro-2H-pyran-4-yl)phenyl)-7-fluoro-2,3-dihydro-1H-inden-1-yloxy)-2,3-dihydrobenzofuran-3-yl)acetic acid]	8 nM
COCc1cc(OCC2(C)COC2)cc(COC)c1-c1ccc(F)c2c1CC[C@H]2Oc1ccc2c(c1)OC[C@H]2CC(=O)O [Example 82, 2-((S)-6-((R)-4-(2,6-Bis(methoxymethyl)-4-((3-methyloxetan-3-yl)methoxy)phenyl)-7-fluoro-2,3-dihydro-1H-inden-1-yloxy)-2,3-dihydrobenzofuran-3-yl)acetic acid]	14 nM
Cc1cc(-c2cnn(CC(C)(C)O)c2)cc(C)c1-c1ccc(F)c2c1CC[C@H]2Oc1ccc2c(c1)OC[C@H]2CC(=O)O [Example 83, 2-((S)-6-((R)-7-Fluoro-4-(4-(1-(2-hydroxy-2-methylpropyl)-1H-pyrazol-4-yl)-2,6-dimethylphenyl)-2,3-dihydro-1H-inden-1-yloxy)-2,3-dihydrobenzofuran-3-yl)acetic acid]	6 nM
Cc1cc(-c2ccn(C)c(=O)c2)cc(C)c1-c1ccc(F)c2c1CC[C@H]2Oc1ccc2c(c1)OC[C@H]2CC(=O)O [Example 84, 2-((S)-6-((R)-4-(2,6-Dimethyl-4-(1-methyl-2-oxo-1,2-dihydropyridin-4-yl)phenyl)-7-fluoro-2,3-dihydro-1H-inden-1-yloxy)-2,3-dihydrobenzofuran-3-yl)acetic acid]	9 nM
Cc1cc(-c2ccc(=O)n(C)c2)cc(C)c1-c1ccc(F)c2c1CC[C@H]2Oc1ccc2c(c1)OC[C@H]2CC(=O)O [Example 85, 2-((S)-6-((R)-4-(2,6-Dimethyl-4-(1-methyl-6-oxo-1,6-dihydropyridin-3-yl)phenyl)-7-fluoro-2,3-dihydro-1H-inden-1-yloxy)-2,3-dihydrobenzofuran-3-yl)acetic acid]	7 nM
Cc1cc(-n2cncn2)cc(C)c1-c1ccc(F)c2c1CC[C@H]2Oc1ccc2c(c1)OC[C@H]2CC(=O)O [Example 86, 2-((S)-6-((R)-4-(2,6-Dimethyl-4-(1H-1,2,4-triazol-1-yl)phenyl)-7-fluoro-2,3-dihydro-1H-inden-1-yloxy)-2,3-dihydrobenzofuran-3-yl)acetic acid]	8 nM
Cc1cc(C2CCOC2)cc(C)c1-c1ccc(F)c2c1CC[C@H]2Oc1ccc2c(c1)OC[C@H]2CC(=O)O (stereo partly drawn) [Example 87, 2-((3S)-6-((1R)-4-(2,6-Dimethyl-4-(tetrahydrofuran-3-yl)phenyl)-7-fluoro-2,3-dihydro-1H-inden-1-yloxy)-2,3-dihydrobenzofuran-3-yl)acetic acid]	24 nM
Cc1cc(-c2cc(=O)n(C)cn2)cc(C)c1-c1ccc(F)c2c1CC[C@H]2Oc1ccc2c(c1)OC[C@H]2CC(=O)O [Example 88, 2-((S)-6-((R)-4-(2,6-Dimethyl-4-(1-methyl-6-oxo-1,6-dihydropyrimidin-4-yl)phenyl)-7-fluoro-2,3-dihydro-1H-inden-1-yloxy)-2,3-dihydrobenzofuran-3-yl)acetic acid]	3 nM
Cc1cc(-c2cnc(=O)n(C)c2)cc(C)c1-c1ccc(F)c2c1CC[C@H]2Oc1ccc2c(c1)OC[C@H]2CC(=O)O [Example 89, 2-((S)-6-((R)-4-(2,6-Dimethyl-4-(1-methyl-2-oxo-1,2-dihydropyrimidin-5-yl)phenyl)-7-fluoro-2,3-dihydro-1H-inden-1-yloxy)-2,3-dihydrobenzofuran-3-yl)acetic acid]	9 nM
Cc1cc(-c2ccnnc2)cc(C)c1-c1ccc(F)c2c1CC[C@H]2Oc1ccc2c(c1)OC[C@H]2CC(=O)O [Example 90, 2-((S)-6-((R)-4-(2,6-Dimethyl-4-(pyridazin-4-yl)phenyl)-7-fluoro-2,3-dihydro-1H-inden-1-yloxy)-2,3-dihydrobenzofuran-3-yl)acetic acid]	5 nM
Cc1cc(-c2ccncn2)cc(C)c1-c1ccc(F)c2c1CC[C@H]2Oc1ccc2c(c1)OC[C@H]2CC(=O)O [Example 91, 2-((S)-6-((R)-4-(2,6-Dimethyl-4-(pyrimidin-4-yl)phenyl)-7-fluoro-2,3-dihydro-1H-inden-1-yloxy)-2,3-dihydrobenzofuran-3-yl)acetic acid]	3 nM
Cc1cc(-c2cnn(C)c(=O)c2)cc(C)c1-c1ccc(F)c2c1CC[C@H]2Oc1ccc2c(c1)OC[C@H]2CC(=O)O [Example 92, 2-((S)-6-((R)-4-(2,6-Dimethyl-4-(1-methyl-6-oxo-1,6-dihydropyridazin-4-yl)phenyl)-7-fluoro-2,3-dihydro-1H-inden-1-yloxy)-2,3-dihydrobenzofuran-3-yl)acetic acid]	5 nM
COc1nccc(-c2cc(C)c(-c3ccc(F)c4c3CC[C@H]4Oc3ccc4c(c3)OC[C@H]4CC(=O)O)c(C)c2)n1 [Example 93]	4 nM
Cc1cc(-c2nnn[nH]2)cc(C)c1-c1ccc(F)c2c1CC[C@H]2Oc1ccc2c(c1)OC[C@H]2CC(=O)O [Example 94, 2-((S)-6-((R)-4-(2,6-Dimethyl-4-(1H-tetrazol-5-yl)phenyl)-7-fluoro-2,3-dihydro-1H-inden-1-yloxy)-2,3-dihydrobenzofuran-3-yl)acetic acid]	82 nM
Cc1cc(-c2nnn(C)n2)cc(C)c1-c1ccc(F)c2c1CC[C@H]2Oc1ccc2c(c1)OC[C@H]2CC(=O)O [Example 95, 2-((S)-6-((R)-4-(2,6-Dimethyl-4-(2-methyl-2H-tetrazol-5-yl)phenyl)-7-fluoro-2,3-dihydro-1H-inden-1-yloxy)-2,3-dihydrobenzofuran-3-yl)acetic acid]	3 nM
Cc1cc(-c2nnnn2C)cc(C)c1-c1ccc(F)c2c1CC[C@H]2Oc1ccc2c(c1)OC[C@H]2CC(=O)O [Example 96, 2-((S)-6-((R)-4-(2,6-Dimethyl-4-(1-methyl-1H-tetrazol-5-yl)phenyl)-7-fluoro-2,3-dihydro-1H-inden-1-yloxy)-2,3-dihydrobenzofuran-3-yl)acetic acid]	20 nM
Cc1cc(-c2ccn(C)c(=O)n2)cc(C)c1-c1ccc(F)c2c1CC[C@H]2Oc1ccc2c(c1)OC[C@H]2CC(=O)O [Example 97, 2-((S)-6-((R)-4-(2,6-Dimethyl-4-(1-methyl-2-oxo-1,2-dihydropyrimidin-4-yl)phenyl)-7-fluoro-2,3-dihydro-1H-inden-1-yloxy)-2,3-dihydrobenzofuran-3-yl)acetic acid]	5 nM
Cc1cc(-c2nnn(CC(C)(C)O)n2)cc(C)c1-c1ccc(F)c2c1CC[C@H]2Oc1ccc2c(c1)OC[C@H]2CC(=O)O [Example 98, 2-((S)-6-((R)-7-Fluoro-4-(4-(2-(2-hydroxy-2-methylpropyl)-2H-tetrazol-5-yl)-2,6-dimethylphenyl)-2,3-dihydro-1H-inden-1-yloxy)-2,3-dihydrobenzofuran-3-yl)acetic acid]	3 nM
